Assays:
Experiment in all cases: biochemical
Assay type in all cases: biochemical
[1] = target: T1, 363 human kinases (including Aurora A/B/C) (Homo sapiens, UniProt P10398); details: ARAF, [ATP] 15 µM; for remaining activity at 0.1 µM: 100 nM; for remaining activity at 0.1 µM / remaining activity at 0.5 µM: read-out: % Enzyme Activity (relative to DMSO controls)
T1 sequence (P10398 1-606): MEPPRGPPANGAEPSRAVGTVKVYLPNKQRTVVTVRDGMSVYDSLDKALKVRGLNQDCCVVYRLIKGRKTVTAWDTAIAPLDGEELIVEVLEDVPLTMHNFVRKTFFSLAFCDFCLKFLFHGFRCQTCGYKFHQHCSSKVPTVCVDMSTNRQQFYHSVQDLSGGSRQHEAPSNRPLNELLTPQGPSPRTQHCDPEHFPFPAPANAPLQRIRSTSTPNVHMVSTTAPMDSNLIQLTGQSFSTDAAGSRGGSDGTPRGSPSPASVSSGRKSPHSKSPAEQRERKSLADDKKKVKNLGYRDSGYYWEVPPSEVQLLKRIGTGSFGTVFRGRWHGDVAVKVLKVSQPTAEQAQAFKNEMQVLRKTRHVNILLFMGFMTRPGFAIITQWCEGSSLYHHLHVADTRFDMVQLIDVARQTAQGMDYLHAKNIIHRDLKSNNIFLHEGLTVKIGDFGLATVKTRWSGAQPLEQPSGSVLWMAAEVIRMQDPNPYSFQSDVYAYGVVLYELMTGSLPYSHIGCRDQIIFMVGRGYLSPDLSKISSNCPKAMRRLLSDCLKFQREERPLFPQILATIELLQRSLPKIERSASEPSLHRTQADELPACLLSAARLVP
Source text: (§1) However, the Aurora A/B selectivity ratios derived from our in vitro and in vivo data can be compared to prioritize inhibitors.

[2] = target: 363 human kinases (including Aurora A/B/C) (Homo sapiens, UniProt P10721); details: c-Kit, [ATP] 100 µM; for remaining activity at 0.1 µM: 100 nM; for remaining activity at 0.1 µM / remaining activity at 0.5 µM: read-out: % Enzyme Activity (relative to DMSO controls)
363 human kinases (including Aurora A/B/C) (Homo sapiens, UniProt P10721), sequence (P10721 26-976): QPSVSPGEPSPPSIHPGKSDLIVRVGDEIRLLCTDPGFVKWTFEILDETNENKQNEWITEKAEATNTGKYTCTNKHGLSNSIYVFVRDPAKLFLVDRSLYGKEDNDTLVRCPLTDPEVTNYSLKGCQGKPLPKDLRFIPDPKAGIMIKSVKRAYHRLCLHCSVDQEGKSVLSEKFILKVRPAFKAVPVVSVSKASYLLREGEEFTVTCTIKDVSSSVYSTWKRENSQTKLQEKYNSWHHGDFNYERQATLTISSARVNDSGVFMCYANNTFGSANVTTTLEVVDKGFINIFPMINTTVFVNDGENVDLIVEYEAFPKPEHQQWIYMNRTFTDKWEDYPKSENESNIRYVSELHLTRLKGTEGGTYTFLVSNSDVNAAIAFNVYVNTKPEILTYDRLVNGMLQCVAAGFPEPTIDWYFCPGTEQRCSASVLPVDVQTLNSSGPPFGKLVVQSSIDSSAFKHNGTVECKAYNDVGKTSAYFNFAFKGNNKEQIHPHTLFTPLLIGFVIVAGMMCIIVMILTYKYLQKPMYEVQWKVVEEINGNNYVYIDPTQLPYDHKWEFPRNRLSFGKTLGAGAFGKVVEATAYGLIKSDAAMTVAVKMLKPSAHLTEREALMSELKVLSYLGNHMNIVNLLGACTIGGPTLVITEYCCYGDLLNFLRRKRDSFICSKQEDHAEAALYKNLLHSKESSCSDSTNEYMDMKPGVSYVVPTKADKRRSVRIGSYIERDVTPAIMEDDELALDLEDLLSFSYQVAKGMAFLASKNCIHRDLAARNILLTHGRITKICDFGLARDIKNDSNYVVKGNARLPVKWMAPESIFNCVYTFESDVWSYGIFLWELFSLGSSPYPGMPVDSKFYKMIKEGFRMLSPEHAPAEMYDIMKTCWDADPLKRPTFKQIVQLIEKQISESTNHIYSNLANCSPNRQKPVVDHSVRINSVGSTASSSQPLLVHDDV
Source text: as §1

[3] = target: 363 human kinases (including Aurora A/B/C) (Homo sapiens, UniProt P31751); details: AKT2, [ATP] 100 µM; for remaining activity at 0.1 µM: 100 nM; for remaining activity at 0.1 µM / remaining activity at 0.5 µM: read-out: % Enzyme Activity (relative to DMSO controls)
363 human kinases (including Aurora A/B/C) (Homo sapiens, UniProt P31751), sequence (P31751 whole entry): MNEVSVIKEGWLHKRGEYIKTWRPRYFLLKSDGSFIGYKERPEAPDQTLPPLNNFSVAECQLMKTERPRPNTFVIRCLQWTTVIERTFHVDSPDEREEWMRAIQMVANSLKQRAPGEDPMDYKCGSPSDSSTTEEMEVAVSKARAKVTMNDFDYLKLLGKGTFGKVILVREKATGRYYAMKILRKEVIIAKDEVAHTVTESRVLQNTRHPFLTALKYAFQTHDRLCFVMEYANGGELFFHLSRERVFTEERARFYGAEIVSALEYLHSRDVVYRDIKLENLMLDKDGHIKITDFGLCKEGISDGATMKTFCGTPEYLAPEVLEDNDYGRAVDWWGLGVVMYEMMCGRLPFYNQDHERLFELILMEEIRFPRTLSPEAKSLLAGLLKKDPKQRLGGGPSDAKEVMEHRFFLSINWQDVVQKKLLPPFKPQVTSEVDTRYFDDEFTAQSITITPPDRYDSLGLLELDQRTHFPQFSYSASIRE
Source text: as §1

[4] = target: 363 human kinases (including Aurora A/B/C) (Homo sapiens, UniProt P49674); details: CK1epsilon, [ATP] 50 µM; for remaining activity at 0.1 µM: 100 nM; for remaining activity at 0.1 µM / remaining activity at 0.5 µM: read-out: % Enzyme Activity (relative to DMSO controls)
363 human kinases (including Aurora A/B/C) (Homo sapiens, UniProt P49674), sequence (P49674 whole entry): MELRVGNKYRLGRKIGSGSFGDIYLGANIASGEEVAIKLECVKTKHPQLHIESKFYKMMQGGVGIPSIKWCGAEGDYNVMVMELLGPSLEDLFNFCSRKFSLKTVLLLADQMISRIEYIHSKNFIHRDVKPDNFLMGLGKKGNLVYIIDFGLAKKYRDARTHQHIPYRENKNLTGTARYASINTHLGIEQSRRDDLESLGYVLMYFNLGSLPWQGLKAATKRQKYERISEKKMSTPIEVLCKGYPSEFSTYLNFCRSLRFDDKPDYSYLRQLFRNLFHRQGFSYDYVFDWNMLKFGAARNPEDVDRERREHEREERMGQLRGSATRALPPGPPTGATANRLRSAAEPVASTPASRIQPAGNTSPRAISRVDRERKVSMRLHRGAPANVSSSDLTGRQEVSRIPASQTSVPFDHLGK
Source text: as §1

[5] = target: T2, 363 human kinases (including Aurora A/B/C) (Homo sapiens, UniProt Q16566); details: CAMK4, [ATP] 10 µM; for remaining activity at 0.1 µM: 100 nM; for remaining activity at 0.1 µM / remaining activity at 0.5 µM: read-out: % Enzyme Activity (relative to DMSO controls)
T2 sequence (Q16566 1-473): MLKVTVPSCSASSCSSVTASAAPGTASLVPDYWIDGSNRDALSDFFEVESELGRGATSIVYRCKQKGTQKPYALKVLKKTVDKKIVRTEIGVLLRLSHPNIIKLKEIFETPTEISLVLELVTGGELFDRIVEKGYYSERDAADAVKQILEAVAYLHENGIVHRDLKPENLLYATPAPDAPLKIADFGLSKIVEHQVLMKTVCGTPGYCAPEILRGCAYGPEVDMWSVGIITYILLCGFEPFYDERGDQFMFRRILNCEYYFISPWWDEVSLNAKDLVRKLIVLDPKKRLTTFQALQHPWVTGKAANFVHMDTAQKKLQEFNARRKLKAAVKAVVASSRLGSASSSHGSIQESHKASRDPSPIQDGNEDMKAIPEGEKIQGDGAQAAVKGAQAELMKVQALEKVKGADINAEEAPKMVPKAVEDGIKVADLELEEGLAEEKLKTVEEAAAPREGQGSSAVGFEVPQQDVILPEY
Source text: as §1

[6] = target: 363 human kinases (including Aurora A/B/C) (Homo sapiens, UniProt Q16644); details: MAPKAPK3; for remaining activity at 0.1 µM: 100 nM; for remaining activity at 0.1 µM / remaining activity at 0.5 µM: read-out: % Enzyme Activity (relative to DMSO controls)
363 human kinases (including Aurora A/B/C) (Homo sapiens, UniProt Q16644), sequence (Q16644 whole entry): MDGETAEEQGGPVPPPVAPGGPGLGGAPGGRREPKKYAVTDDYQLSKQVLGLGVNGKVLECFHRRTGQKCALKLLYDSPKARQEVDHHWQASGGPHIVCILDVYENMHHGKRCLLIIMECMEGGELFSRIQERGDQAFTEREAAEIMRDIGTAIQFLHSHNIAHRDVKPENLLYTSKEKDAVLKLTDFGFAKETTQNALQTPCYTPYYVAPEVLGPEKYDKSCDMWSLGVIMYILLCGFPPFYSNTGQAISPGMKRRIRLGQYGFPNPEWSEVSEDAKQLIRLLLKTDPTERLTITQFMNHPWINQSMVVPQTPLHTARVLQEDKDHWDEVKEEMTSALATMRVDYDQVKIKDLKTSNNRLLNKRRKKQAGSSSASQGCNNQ
Source text: as §1

[7] = target: T3, 363 human kinases (including Aurora A/B/C) (Homo sapiens, UniProt Q8NG66); details: NEK11; for remaining activity at 0.1 µM: 100 nM; for remaining activity at 0.1 µM / remaining activity at 0.5 µM: read-out: % Enzyme Activity (relative to DMSO controls)
T3 sequence (Q8NG66 1-645): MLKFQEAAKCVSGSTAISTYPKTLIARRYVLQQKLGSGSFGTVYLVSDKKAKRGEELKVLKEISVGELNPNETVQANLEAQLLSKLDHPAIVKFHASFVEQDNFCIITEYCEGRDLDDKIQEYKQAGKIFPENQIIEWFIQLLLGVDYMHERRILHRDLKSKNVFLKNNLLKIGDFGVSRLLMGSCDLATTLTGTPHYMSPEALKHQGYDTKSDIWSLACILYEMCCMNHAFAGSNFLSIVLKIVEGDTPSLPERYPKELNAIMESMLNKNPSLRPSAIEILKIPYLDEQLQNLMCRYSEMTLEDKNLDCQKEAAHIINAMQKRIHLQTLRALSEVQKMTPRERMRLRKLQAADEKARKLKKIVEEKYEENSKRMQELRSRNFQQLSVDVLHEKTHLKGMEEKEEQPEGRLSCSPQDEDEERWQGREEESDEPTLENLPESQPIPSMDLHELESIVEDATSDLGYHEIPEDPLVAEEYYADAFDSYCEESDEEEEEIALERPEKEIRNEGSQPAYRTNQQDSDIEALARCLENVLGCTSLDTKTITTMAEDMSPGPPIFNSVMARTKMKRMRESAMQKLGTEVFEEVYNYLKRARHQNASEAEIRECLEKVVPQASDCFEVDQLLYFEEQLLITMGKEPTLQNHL
Source text: as §1

[8] = target: T4, 363 human kinases (including Aurora A/B/C) (Homo sapiens, UniProt Q8WTQ7); details: GRK7; for remaining activity at 0.1 µM: 100 nM; for remaining activity at 0.1 µM / remaining activity at 0.5 µM: read-out: % Enzyme Activity (relative to DMSO controls)
T4 sequence (Q8WTQ7 1-553): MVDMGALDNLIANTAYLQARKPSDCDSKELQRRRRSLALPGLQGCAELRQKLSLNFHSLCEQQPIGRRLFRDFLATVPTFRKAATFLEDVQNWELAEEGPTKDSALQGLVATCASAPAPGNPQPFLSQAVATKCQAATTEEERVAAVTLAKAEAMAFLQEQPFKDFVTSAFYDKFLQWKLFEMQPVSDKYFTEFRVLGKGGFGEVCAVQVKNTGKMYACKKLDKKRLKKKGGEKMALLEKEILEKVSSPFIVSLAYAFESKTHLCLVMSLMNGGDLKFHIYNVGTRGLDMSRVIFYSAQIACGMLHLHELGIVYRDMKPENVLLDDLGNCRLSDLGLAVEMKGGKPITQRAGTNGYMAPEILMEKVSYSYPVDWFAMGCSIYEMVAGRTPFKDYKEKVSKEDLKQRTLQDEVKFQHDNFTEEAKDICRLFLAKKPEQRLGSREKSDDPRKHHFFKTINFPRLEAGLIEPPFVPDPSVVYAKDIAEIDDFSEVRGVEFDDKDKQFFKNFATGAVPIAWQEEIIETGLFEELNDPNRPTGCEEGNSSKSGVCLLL
Source text: as §1

[9] = target: 363 human kinases (including Aurora A/B/C) (Homo sapiens, UniProt Q9Y2K2); details: SIK3; for remaining activity at 0.1 µM: 100 nM; for remaining activity at 0.1 µM / remaining activity at 0.5 µM: read-out: % Enzyme Activity (relative to DMSO controls)
363 human kinases (including Aurora A/B/C) (Homo sapiens, UniProt Q9Y2K2), sequence (Q9Y2K2 whole entry): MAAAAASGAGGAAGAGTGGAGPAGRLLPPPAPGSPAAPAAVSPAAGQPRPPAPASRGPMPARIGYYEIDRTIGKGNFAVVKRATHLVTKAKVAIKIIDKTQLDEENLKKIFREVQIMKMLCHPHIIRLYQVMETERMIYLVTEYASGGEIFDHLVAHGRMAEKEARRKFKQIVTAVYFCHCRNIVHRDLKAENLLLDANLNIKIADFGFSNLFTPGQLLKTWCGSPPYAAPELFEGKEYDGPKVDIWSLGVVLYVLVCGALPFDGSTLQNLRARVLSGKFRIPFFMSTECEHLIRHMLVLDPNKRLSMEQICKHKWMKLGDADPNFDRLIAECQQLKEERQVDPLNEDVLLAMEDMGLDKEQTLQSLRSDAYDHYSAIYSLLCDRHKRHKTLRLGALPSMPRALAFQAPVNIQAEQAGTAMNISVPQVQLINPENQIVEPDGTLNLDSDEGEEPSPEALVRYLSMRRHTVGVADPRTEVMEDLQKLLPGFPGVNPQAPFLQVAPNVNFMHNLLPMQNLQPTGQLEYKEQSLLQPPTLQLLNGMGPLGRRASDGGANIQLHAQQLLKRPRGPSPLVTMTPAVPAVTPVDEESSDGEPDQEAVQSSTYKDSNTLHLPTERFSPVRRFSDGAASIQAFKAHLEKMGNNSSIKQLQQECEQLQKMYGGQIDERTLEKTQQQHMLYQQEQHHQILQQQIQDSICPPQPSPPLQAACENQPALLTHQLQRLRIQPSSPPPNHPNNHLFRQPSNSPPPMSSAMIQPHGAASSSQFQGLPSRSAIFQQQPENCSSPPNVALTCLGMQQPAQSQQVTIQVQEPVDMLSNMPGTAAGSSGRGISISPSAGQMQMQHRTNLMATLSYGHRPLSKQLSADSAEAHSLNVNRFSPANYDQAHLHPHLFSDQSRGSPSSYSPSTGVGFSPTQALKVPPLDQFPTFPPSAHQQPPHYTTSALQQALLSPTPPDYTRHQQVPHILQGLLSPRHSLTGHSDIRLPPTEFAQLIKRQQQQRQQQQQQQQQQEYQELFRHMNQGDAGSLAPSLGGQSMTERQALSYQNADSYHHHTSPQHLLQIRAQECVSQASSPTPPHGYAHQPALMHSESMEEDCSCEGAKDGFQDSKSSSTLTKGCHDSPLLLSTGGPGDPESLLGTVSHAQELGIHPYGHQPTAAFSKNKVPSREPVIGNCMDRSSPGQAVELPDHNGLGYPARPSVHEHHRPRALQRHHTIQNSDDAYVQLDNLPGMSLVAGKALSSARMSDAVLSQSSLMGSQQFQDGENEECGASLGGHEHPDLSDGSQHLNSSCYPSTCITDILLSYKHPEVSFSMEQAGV
Source text: as §1

| Compound | remaining activity at 0.1 µM [1] | remaining activity at 0.1 µM [2] | remaining activity at 0.1 µM [3] | remaining activity at 0.1 µM [4] | remaining activity at 0.1 µM [5] | remaining activity at 0.1 µM [6] | remaining activity at 0.1 µM [7] | remaining activity at 0.1 µM [8] | remaining activity at 0.1 µM [9] | remaining activity at 0.5 µM ([1]; 500 nM) | remaining activity at 0.5 µM ([2]; 500 nM) | remaining activity at 0.5 µM ([3]; 500 nM) | remaining activity at 0.5 µM ([4]; 500 nM) | remaining activity at 0.5 µM ([5]; 500 nM) | remaining activity at 0.5 µM ([6]; 500 nM) | remaining activity at 0.5 µM ([7]; 500 nM) | remaining activity at 0.5 µM ([8]; 500 nM) | remaining activity at 0.5 µM ([9]; 500 nM) | other results |
| --- | --- | --- | --- | --- | --- | --- | --- | --- | --- | --- | --- | --- | --- | --- | --- | --- | --- | --- | --- |
| CCn1cc(-c2ccnc3[nH]c(-c4cccc(CN(C)C)c4)cc23)c(-c2ccc(NC(=O)N(C)C)cc2)n1 [GSK1070916] | 94.9% | 76.5% | 95.8% | 95.8% | 98.5% | 93.8% | 77.7% | 100% | 87.8% |  |  |  |  |  |  |  |  |  |  |
| O=C(O)[C@]1(Cc2cccc(Nc3nccs3)n2)CC[C@@H](Oc2cccc(Cl)c2F)CC1 [MK-5108] | 96.4% | 107% | 94.5% | 98.1% | 93.4% | 99.7% | 86.5% | 98.7% | 97.3% | 94.4% | 85.6% | 107% | 91.5% | 99.8% | 84.9% | 73.9% | 94.2% | 103% |  |
| O=C(c1cccc(Cl)c1F)N1CCN(Cc2cccc(Nc3nccs3)n2)CC1 [MK-8745] |  |  |  |  |  |  |  |  |  | 96% | 88.2% | 96.8% | 94.9% | 102% | 88.7% | 76.6% | 101% | 93.5% | % Enzyme Activity (relative to DMSO controls) ([1]; 500 nM): 95.99%; % Enzyme Activity (relative to DMSO controls) ([2]; 500 nM): 86.62%; % Enzyme Activity (relative to DMSO controls) ([3]; 500 nM): 96.21%; % Enzyme Activity (relative to DMSO controls) ([4]; 500 nM): 93.98%; % Enzyme Activity (relative to DMSO controls) ([5]; 500 nM): 101.38%; % Enzyme Activity (relative to DMSO controls) ([6]; 500 nM): 87.18%; % Enzyme Activity (relative to DMSO controls) ([7]; 500 nM): 75.49%; % Enzyme Activity (relative to DMSO controls) ([8]; 500 nM): 97.48%; % Enzyme Activity (relative to DMSO controls) ([9]; 500 nM): 91.26% |

Reference: article PMC4685510, “A Cell Biologist’s Field Guide to Aurora Kinase Inhibitors” (Frontiers in Oncology, 2015)
